Assay results reported in the NIST ThermoML archive (doi:10.1021/acs.jced.8b00930).

Conditions: Liquid, Capillary tube (Ostwald / Ubbelohde) method

CCCCCCCCCCCCCCCC [hexadecane]
Conditions	viscosity [mPa·s]
322.7 K, 1940 kPa	1.885
323.7 K, 970 kPa	1.857
323.7 K, 3000 kPa	1.904
323.8 K, 1980 kPa	1.878
323.8 K, 3910 kPa	1.925
372.7 K, 990 kPa	0.909
372.7 K, 1960 kPa	0.922
372.8 K, 2970 kPa	0.929
372.8 K, 3950 kPa	0.947
373.9 K, 980 kPa	0.896
373.9 K, 2000 kPa	0.909
373.9 K, 2980 kPa	0.915
373.9 K, 3900 kPa	0.936
422.9 K, 1990 kPa	0.554
422.9 K, 2970 kPa	0.557
422.9 K, 3840 kPa	0.568
471.9 K, 1000 kPa	0.358
472 K, 2010 kPa	0.363
472.1 K, 2910 kPa	0.371
472.1 K, 3870 kPa	0.374
473.7 K, 3990 kPa	0.375
521.9 K, 970 kPa	0.245
521.9 K, 1960 kPa	0.254
521.9 K, 2950 kPa	0.26
522 K, 3830 kPa	0.267
572.1 K, 2930 kPa	0.192
572.2 K, 2000 kPa	0.187
572.2 K, 3850 kPa	0.196
621.9 K, 2010 kPa	0.131
622 K, 2890 kPa	0.137
622.1 K, 3820 kPa	0.142
623.2 K, 3990 kPa	0.143
672.6 K, 3990 kPa	0.104
673.2 K, 2000 kPa	0.091
673.6 K, 3000 kPa	0.097
